What was measured:
Format in all cases: cell-based, rat
[1] = tested on: cultured osteoblasts; experiment: Collagen synthesis (4-hydroxyproline content); conditions: only at a higher concentration of 10 μM
Protocol: von Kossa staining: Osteoblasts were cultured in DMEM containing 50 μg/ml vitamin C and 10 mM β-glycerophosphate for 2 weeks and the medium was changed every 3 days. To examine nodule formation, the cells were fixed in 4% paraformaldehyde for 10 min, rinsed with water, stained with 1% silver nitrate, placed under a UV lamp for 30 min and rinsed with water before treating with 5% sodium thiosulfate for 2 min. The cells were then washed twice with water and counterstained with 1% Safranin-O to visualize the matrix. The number of nodules formed per well was counted under a light microscope. Collagen synthesis was determined by measuring the 4-hydroxyproline content in cultured osteoblasts. Cells cultured in DMEM containing 50 μg/ml vitamin C and 10 mM β-glycerophosphate for 2 weeks were hydrolyzed in 6N HCl for 16 h at 116° C. After lyophilizing and reconstituting a lysate in distilled water, the amount of 4-hydroxyproline was determined by spectrophotometry at 550 nm as described by Berg (1982) Meth Enzymol. 82: 372–398.

[2] = tested on: Primary osteoblast cells; experiment: von Kossa staining, bone nodule formation; conditions: treatment for 2 weeks
Protocol: Primary osteoblast cultures: Primary osteoblast cells were prepared from calvaria of 18-day-old fetal Sprague-Dawley (SD) rats according to the following method: Pregnant rats were put in anesthesia using intraperitoneal injection of trichloroacetaldehyde (200 mg/kg). The calvaria of the fetal rats were then dissected with aseptic technique. Soft tissues were removed under a dissecting microscope. The calvaria were divided into small pieces and then treated with 0.1% collagenase (Sigma Chemical, St. Louis, Mo.) solution for 10 minutes at 37° C. The cells released from the calvariae by two 20-minute sequential collagenase digestions were pooled and filtered through 70 μm nylon filters (Falcon, BD BioSciences, San Jose, Calif.). […]
von Kossa staining: Osteoblasts were cultured in DMEM containing 50 μg/ml vitamin C and 10 mM β-glycerophosphate for 2 weeks and the medium was changed every 3 days. […] The number of nodules formed per well was counted under a light microscope. Collagen synthesis was determined by measuring the 4-hydroxyproline content in cultured osteoblasts. […] After lyophilizing and reconstituting a lysate in distilled water, the amount of 4-hydroxyproline was determined by spectrophotometry at 550 nm as described by Berg (1982) Meth Enzymol. […]

[3] = tested on: Osteoblasts; experiment: Assay of cell proliferation (BrdU incorporation)
Protocol: Primary osteoblast cultures: Primary osteoblast cells were prepared from calvaria of 18-day-old fetal Sprague-Dawley (SD) rats according to the following method: Pregnant rats were put in anesthesia using intraperitoneal injection of trichloroacetaldehyde (200 mg/kg). The calvaria of the fetal rats were then dissected with aseptic technique. Soft tissues were removed under a dissecting microscope. The calvaria were divided into small pieces and then treated with 0.1% collagenase (Sigma Chemical, St. Louis, Mo.) solution for 10 minutes at 37° C. The cells released from the calvariae by two 20-minute sequential collagenase digestions were pooled and filtered through 70 μm nylon filters (Falcon, BD BioSciences, San Jose, Calif.). The cells were then grown on plastic cell culture dishes in 95:5 air-CO2 with Dulbecco's modified Eagle's medium (DMEM) (Gibco, Grand Island, N.Y.) which was supplemented with 20 mM HEPES and 10% heat-inactivated FCS, 2 mM-glutamine, penicillin (100 U/ml) and streptomycin (100 μg/ml) (pH adjusted to 7.6). The cell medium was changed twice a week. Osteoblasts were confirmed by morphology and expression of alkaline phosphatase (ALP). […] BrdU incorporation was assayed according to the protocol of enzyme-linked immunosorbent assay chemiluminescence detection kit (Roche Molecular Biochemicals) using a luminescence counter (TopCount; Packard Instruments, Meriden, Conn.). […]

[4] = tested on: osteoclast precursors; experiment: Osteoclastogenesis (TRAP-positive multinucleated cells); conditions: M-CSF 20 ng/ml and sRANKL 50 ng/ml, 8 days
Protocol: Osteoclastogenesis: Bone marrow cells were prepared by removing femurs from 6–8-week-old SD rats and flushing the bone marrow cavity with DMEM which was supplemented with 20 mM HEPES and 10% heat-inactivated FCS, 2 mM-glutamine, penicillin (100 U/ml) and streptomycin (100 μg/ml). After 24 hr, the non-adherent cells (hematopoietic cells) were collected and used as osteoclast precursors. The cells were seeded at 1×10^6 cells/well (0.5 ml) in 24-well plates in the presence of human recombinant soluble RANKL (50 ng/ml, Peprotech EC Ltd., London, United Kingdom) and murine M-CSF (20 ng/ml, Genzyme, Cambridge, Mass.). The culture medium was changed every 3 days. After 8˜10 days, osteoclast formation was confirmed by an assay of tartrate-resistant acid phosphatase (TRAP) (Kotake et al., 1999). In brief, the adherent cells were fixed with 10% formaldehyde in phosphate-buffered saline for 3 min. After treatment with ethanol/acetone (50:50 v/v) for 1 min, the cell surface was air dried and incubated for 10 min at room temperature in an acetate buffer (0.1 M sodium acetate, pH 5.0) containing 0.01% naphthol AS-MX phosphate (Sigma) and 0.03% fast red violet LB salt (Sigmna) in the presence of 50 mM sodium tartrate. Osteoclast-like TRAP-positive cells in each well were scored by counting the number of TRAP-positive and multinucleated cells containing more than three nuclei.

For `OCc1ccc(-c2nn(Cc3ccccc3)c3ccccc23)o1` [Indazole 1, 1-benzyl-3-(5′-hydroxymethyl-2′-furyl)-indazole], the collagen synthesis [1] was “increased”, the “number of bone nodules (von Kossa staining)” value [2] was “increased the number of bone nodules in a concentration-dependent manner” and the proliferation of osteoblasts ([3]; 0.1 μM) was 119.3 % of control. For the same compound, the proliferation of osteoblasts ([3]; 1 μM) was 126.1 % of control and the differentiation of osteoclast [4] was “inhibited the differentiation of osteoclast in a concentration-dependent manner”.

Source: patent US7160916B2, “Method of increasing bone density or treating osteoporosis” (Yung Shin Pharmaceutical Ind. Co., Ltd., priority 2003, dated 2007)
